Experimental data published in patent publication US8101389B2, “Bacterial glutamine synthetases and methods of use” (Athenix Corp, priority 2006, dated 2012).
“Also recorded” adds a separate entry of the source.

Columns and labels:
ATX 20345 = experiment: Growth of strain ATX 20345 in minimal medium with glufosinate; format: cell-based, Serratia marcescens; conditions: no other nitrogen source, 21° C.
Protocol: A glufosinate resistant bacterial strain (ATX 20345) was isolated from a soil sample via a soil suspension by placing approximately 0.01 grams soil in 500 μl sterile water. The soil suspension was vortexed, and 20 μl was used to inoculate a 2.5 ml minimal medium culture supplemented with 5 mM glufosinate (Riedel-de Habël, available through Sigma-Aldrich, St. Louis, Mo.). The minimal medium contains the following ingredients (per 1 liter): 10 grams sucrose, 1 ml 0.8M MgSO4, 1 ml 0.1M CaCl2, 1 ml trace elements, 2.38 grams KH2PO4, 5.64 grams K2HPO4. The pH is adjusted to 7.0, and the solution is sterilized with a 0.2 μm filter. Trace elements consist of (per 100 ml) 0.1 g FeSO4.7H2O, 0.5 mg CuSO4.5H2O, 1.0 mg H3BO3, 1.0 mg MnSO4.5H2O, 7.0 mg ZnSO4.7H2O, 1.0 mg MoO3, 4.0 g KCl. No additional nitrogen source was provided in the medium. Cultures were grown at 21° C. on a rotary shaker for 3 days then transferred to fresh minimal medium containing 5 mM glufosinate and incubated at 21° C. After 2 days, the cultures were used to inoculate fresh minimal medium with 5 mM glufosinate. After 2 days, the cultures were plated onto Luria Bertani (LB) agar and then restruck for isolation. […] Colonies on LB agar are pinkish-red, raised, circular, and 1-2 mm in diameter. ATX20345 was typed by fatty acid analysis (as known in the art), and determined to be a strain of Serratia marcescens. […]

[1] = target: T1, Serratia marcescens ATX 20345 glutamine synthetase AGS1, wild type, SEQ ID NO:2 (Serratia marcescens, UniProt A0A0F6KS08); experiment: enzymatic assay, kinetics of wild-type AGS1; format: biochemical
T1 construct: gene cloned as pAX685; dodecamer from known biology
Text: ags1m1 (pAX3421) and ags1m2 (pAX3422) were subcloned into E. coli expression vector pRSF1B (Invitrogen) so as to create an N-terminus encoding a 6Xhis tag, purified and characterized kinetically.
ags1m21 (SEQ ID NO:41) encodes the AGS1m21 protein (SEQ ID NO:42). AGS1m21 is a variant of AGS1 that contains a similar amino acid change identified in other variants (V214M), as well as two novel mutations (N160S and G167R). This enzyme was expressed in E. coli, purified, and the kinetic values Km(glutamate) and Ki(glufosinate) of the variant measured by enzymatic assay.
The unmodified enzyme (AGS1) was compared to AGS1(AD-) and AGS1m17(AD-) by carrying out enzymatic assays on both enzymes following purification from E. coli. A glutamine synthetase enzyme from E. coli (GlnA) was also tested.

T1 sequence (A0A0F6KS08 entry or part of it): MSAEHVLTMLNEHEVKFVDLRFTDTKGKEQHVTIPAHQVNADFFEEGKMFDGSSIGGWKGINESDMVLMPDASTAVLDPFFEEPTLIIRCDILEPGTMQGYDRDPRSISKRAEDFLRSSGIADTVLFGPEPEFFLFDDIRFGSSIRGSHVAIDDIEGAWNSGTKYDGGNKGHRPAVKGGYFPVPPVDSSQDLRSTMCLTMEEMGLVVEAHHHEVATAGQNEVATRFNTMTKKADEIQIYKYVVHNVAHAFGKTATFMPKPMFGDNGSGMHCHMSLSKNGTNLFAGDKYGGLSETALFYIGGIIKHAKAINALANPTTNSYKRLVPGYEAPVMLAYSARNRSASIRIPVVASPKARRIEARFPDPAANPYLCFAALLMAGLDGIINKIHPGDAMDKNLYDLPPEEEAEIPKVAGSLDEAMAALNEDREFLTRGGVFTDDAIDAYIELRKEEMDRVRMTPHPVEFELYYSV

With `CP(=O)(O)CCC(N)C(=O)O` (stereo not shown) [glufosinate] as the compound, how does the “growth of ATX 20345 in the presence of glufosinate” value (ATX 20345) read?
Its value is “ability to grow in the presence of 5 mM glufosinate; also recorded: grows well through 50 mM”.

What about the Ki [1] of the same compound?
Its Ki is 13 µM.

And the inhibition by glufosinate ([1]; 100 uM glufosinate)?
The inhibition by glufosinate was “completely inhibited”.

What about the “(Kcat*Ki)/Km” value ([1]; Table 5, Km glutamate, Ki glufosinate) of the same compound?
Its value is 0.32.
